Experiments:
[1] = tested on: NCI-H2066 (Squamous Cell Lung Carcinoma); experiment: combination Emax (second highest fraction inhibited in the dose matrix, 72 h); higher = more inhibition; extreme values may be limits of the assay
How it was run: (§1)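 After 24 hours at 37°C and 5% CO2 in 1536-well plates, cells in DMEM/F12 or RPMI plus 10% FBS received two-drug dose matrices for 72 hours. Viability came from CellTiter-Glo 2.0 luminescence and was scaled as inhibition, anchored at 0 by vehicle wells and at 1 by blank wells. Combination Emax is taken as the second-highest inhibition in the matrix, and Bliss excess as the observed combination effect less EA + EB − EA·EB, with EA and EB the single-agent effects.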

[2] = tested on: PANC-10-05 (Pancreatic Carcinoma); experiment: as above
How it was run: as §1

[3] = tested on: BICR22 (Oral Cavity Carcinoma); experiment: as above
How it was run: as §1

[4] = tested on: CAPAN-2 (Pancreatic Carcinoma); experiment: as above
How it was run: as §1

[5] = tested on: VCaP (Prostate Carcinoma); experiment: as above
How it was run: as §1

[6] = tested on: TT (Thyroid Gland Carcinoma); experiment: as above
How it was run: as §1

[7] = tested on: NCI-H64 (Small Cell Lung Carcinoma); experiment: as above
How it was run: as §1

FU97 (Gastric Carcinoma) [8] = experiment: as above
How it was run: as §1

[9] = tested on: NCI-H1666 (Lung Adenocarcinoma); experiment: as above
How it was run: as §1

[10] = tested on: NCI-H1581 (Non-Small Cell Lung Carcinoma); experiment: as above
How it was run: as §1

U-2-OS (Osteosarcoma) [11] = experiment: as above
How it was run: as §1

[12] = tested on: ECC10 (Gastric Carcinoma); experiment: as above
How it was run: as §1

NY (Osteosarcoma) [13] = experiment: as above
How it was run: as §1

[14] = tested on: CCK-81 (Colorectal Carcinoma); experiment: as above
How it was run: as §1

[15] = tested on: KARPAS-422 (B-Cell Non-Hodgkin's Lymphoma); experiment: as above
How it was run: as §1

[16] = tested on: ONS-76 (Other Solid Carcinomas); experiment: as above
How it was run: as §1

[17] = tested on: COLO-320-HSR (Colorectal Carcinoma); experiment: as above
How it was run: as §1

IGR-37 (Melanoma) [18] = experiment: as above
How it was run: as §1

[19] = tested on: NCI-H2066 (Squamous Cell Lung Carcinoma); experiment: Bliss excess, mean over the matrix (fraction); higher = more synergy
How it was run: as §1

[20] = tested on: PANC-10-05 (Pancreatic Carcinoma); experiment: as above
How it was run: as §1

[21] = tested on: BICR22 (Oral Cavity Carcinoma); experiment: as above
How it was run: as §1

[22] = tested on: CAPAN-2 (Pancreatic Carcinoma); experiment: as above
How it was run: as §1

[23] = tested on: VCaP (Prostate Carcinoma); experiment: as above
How it was run: as §1

[24] = tested on: TT (Thyroid Gland Carcinoma); experiment: as above
How it was run: as §1

[25] = tested on: NCI-H64 (Small Cell Lung Carcinoma); experiment: as above
How it was run: as §1

FU97 (Gastric Carcinoma) [26] = experiment: as above
How it was run: as §1

[27] = tested on: NCI-H1666 (Lung Adenocarcinoma); experiment: as above
How it was run: as §1

[28] = tested on: NCI-H1581 (Non-Small Cell Lung Carcinoma); experiment: as above
How it was run: as §1

U-2-OS (Osteosarcoma) [29] = experiment: as above
How it was run: as §1

[30] = tested on: ECC10 (Gastric Carcinoma); experiment: as above
How it was run: as §1

NY (Osteosarcoma) [31] = experiment: as above
How it was run: as §1

[32] = tested on: CCK-81 (Colorectal Carcinoma); experiment: as above
How it was run: as §1

[33] = tested on: KARPAS-422 (B-Cell Non-Hodgkin's Lymphoma); experiment: as above
How it was run: as §1

[34] = tested on: ONS-76 (Other Solid Carcinomas); experiment: as above
How it was run: as §1

[35] = tested on: COLO-320-HSR (Colorectal Carcinoma); experiment: as above
How it was run: as §1

IGR-37 (Melanoma) [36] = experiment: as above
How it was run: as §1
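Wherever Bliss excess, mean over the matrix is given: after 72 h of two-drug dosing.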

Structure (SMILES) | combination Emax [1] | combination Emax [2] | combination Emax [3] | combination Emax [4] | combination Emax [5] | combination Emax [6] | combination Emax [7] | combination Emax (FU97 (Gastric Carcinoma) [8]) | combination Emax [9] | combination Emax [10] | combination Emax (U-2-OS (Osteosarcoma) [11]) | combination Emax [12] | combination Emax (NY (Osteosarcoma) [13]) | combination Emax [14] | combination Emax [15] | combination Emax [16] | combination Emax [17] | combination Emax (IGR-37 (Melanoma) [18]) | Bliss excess [19] | Bliss excess [20] | Bliss excess [21] | Bliss excess [22] | Bliss excess [23] | Bliss excess [24] | Bliss excess [25] | Bliss excess (FU97 (Gastric Carcinoma) [26]) | Bliss excess [27] | Bliss excess [28] | Bliss excess (U-2-OS (Osteosarcoma) [29]) | Bliss excess [30] | Bliss excess (NY (Osteosarcoma) [31]) | Bliss excess [32] | Bliss excess [33] | Bliss excess [34] | Bliss excess [35] | Bliss excess (IGR-37 (Melanoma) [36])
Cc1c2c(nn1C)CSCc1cc(n(C)n1)CSc1cc(c3ccccc3c1)OCCCc1c(C(=O)O)n(C)c3c-2c(Cl)ccc13 [AZD5991] + CC(=O)O[C@H]1C(=O)[C@@]2(C)[C@H]([C@H](OC(=O)c3ccccc3)[C@]3(O)C[C@H](OC(=O)[C@H](O)[C@@H](NC(=O)c4ccccc4)c4ccccc4)C(C)=C1C3(C)C)[C@]1(OC(C)=O)CO[C@@H]1C[C@@H]2O [Paclitaxel] (first compound max 1 µM, 7x7, partner max 3 µM) | 0.589 | 0.569 | 0.98 | 0.144 | 0.977 | 0.26 | 0.719 | 0.257 | 0.563 | 1 | 0.735 | 0.942 | 0.963 | 0.989 | 0.996 | 0.644 | 0.991 | 0.885 | -0.027 | 0.0368 | 0.0021 | 0.0086 | 0.0074 | -0.0423 | 0.0573 | -0.0142 | -0.0239 | 0.0114 | -0.0291 | -0.0567 | 0.0268 | -0.0396 | 0.0084 | -0.0383 | -0.0443 | 0.0439
Cc1c2c(nn1C)CSCc1cc(n(C)n1)CSc1cc(c3ccccc3c1)OCCCc1c(C(=O)O)n(C)c3c-2c(Cl)ccc13 [AZD5991] + CS(=O)(=O)CCNCc1ccc(-c2ccc3ncnc(Nc4ccc(OCc5cccc(F)c5)c(Cl)c4)c3c2)o1 [Lapatinib] (first compound max 1 µM, 7x7, partner max 10 µM) | 0.426 | 0.474 | 0.969 | 0.186 | 0.96 | 0.237 | 0.111 | 0.906 | 0.942 | 0.968 | 0.197 | 0.975 | 0.564 | 1 | 0.965 | 0.294 | 1 | 0.36 | -0.0195 | -0.0585 | 0.0948 | -0.0087 | -0.0052 | 0.0128 | -0.0332 | -0.0583 | 0.0641 | -0.0138 | -0.0345 | 0.0088 | -0.0523 | 0.055 | -0.0425 | -0.0232 | 0.0422 | -0.0622
Cc1c2c(nn1C)CSCc1cc(n(C)n1)CSc1cc(c3ccccc3c1)OCCCc1c(C(=O)O)n(C)c3c-2c(Cl)ccc13 [AZD5991] + Nc1ccn([C@@H]2O[C@H](CO)[C@@H](O)C2(F)F)c(=O)n1 [Gemcitabine] (first compound max 1 µM, 7x7, partner max 0.3 µM) | 0.184 | 0.472 | 0.957 | 0.101 | 0.977 | 0.405 | 0.37 | 0.232 | 0.473 | 0.998 | 0.387 | 0.935 | 0.88 | 0.942 | 0.979 | 0.499 | 0.944 | 0.79 | -0.0415 | -0.0263 | -0.0254 | -0.035 | 0.0667 | -0.0048 | 0.0292 | 0.0193 | -0.0299 | 0.0459 | -0.0017 | 0.0593 | -0.0564 | 0.0013 | -0.0219 | 0.0088 | -0.0386 | 0.011
C[C@@H]1COCCN1c1cc(C2([S@](C)(=N)=O)CC2)nc(-c2ccnc3[nH]ccc23)n1 [AZD6738] + C1CC(C1)(C(=O)[O-])C(=O)[O-].N.N.[Pt+2] [Carboplatin] (first compound max 10 µM, 7x7, partner max 10 µM) | 0.412 | 0.477 | 0.804 | 0.159 | 0.48 | 0.442 | 0.793 | 0.349 | 0.304 | 0.281 | 0.511 | 0.397 | 0.568 | 0.886 | 0.434 | 0.814 | 0.495 | 0.616 | -0.0715 | -0.0611 | -0.0297 | -0.0168 | -0.0644 | -0.0108 | -0.0431 | -0.0215 | -0.0814 | -0.0399 | -0.0234 | -0.0097 | -0.0504 | -0.0429 | -0.0683 | -0.0512 | -0.036 | -0.0539
Cc1cc2ncnn2cc1Nc1ncc2c(n1)n(C1CCOCC1)c(=O)n2C [AZD7648] + COc1cc([C@@H]2c3cc4c(cc3[C@@H](O[C@@H]3O[C@@H]5CO[C@@H](C)O[C@H]5[C@H](O)[C@H]3O)[C@H]3COC(=O)[C@H]23)OCO4)cc(OC)c1O [Etoposide] (first compound max 10 µM, 7x7, partner max 10 µM) | 0.332 | 0.636 | 0.856 | 0.186 | 0.579 | 0.431 | 0.316 | 0.298 | 0.401 | 0.787 | 0.647 | 0.913 | 0.654 | 0.565 | 0.884 | 0.748 | 0.606 | 0.703 | -0.03 | 0.0148 | 0.13 | 0.0103 | 0.0464 | 0.0627 | -0.0142 | -0.0016 | 0.0131 | 0.0368 | 0.0528 | 0.108 | 0.0475 | 0.093 | -0.0391 | 0.0815 | 0.0573 | 0.0178
C[C@@H](Nc1cc(F)cc(F)c1)c1cc(C(=O)N(C)C)cc2c(=O)cc(N3CCOCC3)oc12 [AZD8186] + C1CN(CCC1(C(=O)N[C@@H](CCO)C2=CC=C(C=C2)Cl)N)C3=NC=NC4=C3C=CN4 [AZD5363] (first compound max 10 µM, 7x7, partner max 10 µM) | 0.513 | 0.436 | 0.308 | 0.285 | 0.443 | 0.415 | 0.277 | 0.374 | 0.406 | 0.101 | 0.279 | 0.276 | 0.325 | 0.266 | 0.628 | 0.312 | 0.184 | 0.44 | -0.0364 | -0.0847 | 0.0421 | -0.0305 | -0.0177 | -0.0413 | 0.0116 | -0.0072 | -0.0707 | -0.0207 | -0.0324 | 0.0141 | 0.0425 | -0.0118 | -0.106 | -0.028 | 0.0159 | 0.0334
C[C@@H](Nc1cc(F)cc(F)c1)c1cc(C(=O)N(C)C)cc2c(=O)cc(N3CCOCC3)oc12 [AZD8186] + CC(=O)c1c(C)c2cnc(Nc3ccc(N4CCNCC4)cn3)nc2n(C2CCCC2)c1=O [Palbociclib] (first compound max 10 µM, 7x7, partner max 10 µM) | 0.319 | 0.383 | 0.192 | 0.213 | 0.371 | 0.416 | 0.469 | 0.386 | 0.454 | 0.651 | 0.391 | 0.661 | 0.408 | 0.418 | 0.707 | 0.424 | 0.382 | 0.464 | -0.0299 | -0.0689 | -0.0275 | 0.0182 | 0.0706 | 0.0582 | 0.0127 | 0.0755 | -0.0433 | 0.085 | 0.0498 | 0.08 | 0.0895 | 0.0824 | 0.018 | 0.0763 | 0.0312 | 0.0795

— the supplement of paper PMC11061612
